In ChEMBL document CHEMBL1144896 (2003):

Legend:
NCI-H1299 [1] = assay: hTERT-SEAP (Human telomerase reverse transcriptase-SEAP) activity in non-small cell lung cancer H1299 cell at 23 uM concentration and level of cell viability determined in MTT assay; type: functional
NCI-H1299 [2] = assay: Compound was tested for human telomerase reverse transcriptase-SEAP (hTERT-SEAP) activity in non-small cell lung cancer H1299 cell at 230.0 uM concentration; type: functional
NCI-H1299 [3] = assay: (§1) hTERT-SEAP (Human telomerase reverse transcriptase-SEAP) activity in non-small cell lung cancer H1299 cell at 2.3 uM concentration and level of cell viability determined in MTT assay; type: functional
BJ [4] = assay: hTERT-SEAP (Human telomerase reverse transcriptase-SEAP) activity in immortalized hTERT-BJI at 23 uM concentration and level of cell viability determined in MTT assay; type: functional
NCI-H1299 [5] = assay: (§2) Compound was tested for human telomerase reverse transcriptase-SEAP (hTERT-SEAP) activity in non-small cell lung cancer H1299 cell at 2.3 uM concentration; type: functional
BJ [6] = assay: hTERT-SEAP (Human telomerase reverse transcriptase-SEAP) activity in immortalized hTERT-BJI at 230.0 uM concentration and level of cell viability determined in MTT assay; type: functional
NCI-H1299 [7] = assay: as §1; type: functional; remark: listed apart in the source
NCI-H1299 [8] = assay: hTERT-SEAP (Human telomerase reverse transcriptase-SEAP) activity in non-small cell lung cancer H1299 cell at 230.0 uM concentration and level of cell viability determined in MTT assay; type: functional
BJ [9] = assay: Compound was tested for human telomerase reverse transcriptase-SEAP (hTERT-SEAP) activity in immortalized hTERT-BJI at 23 uM concentration; type: functional
NCI-H1299 [10] = assay: Compound was tested for human telomerase reverse transcriptase-SEAP (hTERT-SEAP) activity in non-small cell lung cancer H1299 cell at 23 uM concentration; type: functional
NCI-H1299 [11] = assay: as §2; type: functional; remark: listed apart in the source
BJ [12] = assay: Compound was tested for human telomerase reverse transcriptase-SEAP (hTERT-SEAP) activity in immortalized hTERT-BJI at 230.0 uM concentration; type: functional
BJ [13] = assay: hTERT-SEAP (Human telomerase reverse transcriptase-SEAP) activity in immortalized hTERT-BJI at 22 uM concentration and level of cell viability determined in MTT assay; type: functional
NCI-H1299 [14] = assay: Compound was tested for human telomerase reverse transcriptase-SEAP (hTERT-SEAP) activity in non-small cell lung cancer H1299 cell at 220.0 uM concentration; type: functional
NCI-H1299 [15] = assay: hTERT-SEAP (Human telomerase reverse transcriptase-SEAP) activity in non-small cell lung cancer H1299 cell at 22 uM concentration and level of cell viability determined in MTT assay; type: functional
NCI-H1299 [16] = assay: hTERT-SEAP (Human telomerase reverse transcriptase-SEAP) activity in non-small cell lung cancer H1299 cell at 220.0 uM concentration and level of cell viability determined in MTT assay; type: functional
BJ [17] = assay: hTERT-SEAP (Human telomerase reverse transcriptase-SEAP) activity in immortalized hTERT-BJI at 2.2 uM concentration and level of cell viability determined in MTT assay; type: functional
NCI-H1299 [18] = assay: Compound was tested for human telomerase reverse transcriptase-SEAP (hTERT-SEAP) activity in non-small cell lung cancer H1299 cell at 22 uM concentration; type: functional
NCI-H1299 [19] = assay: Compound was tested for human telomerase reverse transcriptase-SEAP (hTERT-SEAP) activity in non-small cell lung cancer H1299 cell at 2.2 uM concentration; type: functional
BJ [20] = assay: hTERT-SEAP (Human telomerase reverse transcriptase-SEAP) activity in immortalized hTERT-BJI at 220.0 uM concentration and level of cell viability determined in MTT assay; type: functional
BJ [21] = assay: pPCMV-SEAP (cytomegalovirus-SEAP) activity in immortalized hTERT-BJ1 at 22 uM concentration and level of cell viability determined in MTT assay; type: functional, Homo sapiens
BJ [22] = assay: Compound was tested for human telomerase reverse transcriptase-SEAP (hTERT-SEAP) activity in immortalized hTERT-BJI at 220.0 uM concentration; type: functional
BJ [23] = assay: Compound was tested for human telomerase reverse transcriptase-SEAP (hTERT-SEAP) activity in immortalized hTERT-BJI at 22 uM concentration; type: functional
BJ [24] = assay: Compound was tested for cytomegalovirus or (pPCMV-SEAP) activity in immortalized hTERT-BJ1 at 22 uM concentration; type: functional, Homo sapiens
BJ [25] = assay: pPCMV-SEAP (cytomegalovirus-SEAP) activity in immortalized hTERT-BJ1 at 220 uM concentration and level of cell viability determined in MTT assay; type: functional, Homo sapiens
BJ [26] = assay: Compound was tested for human telomerase reverse transcriptase-SEAP (hTERT-SEAP) activity in immortalized hTERT-BJI at 2.2 uM concentration; type: functional
NCI-H1299 [27] = assay: hTERT-SEAP (Human telomerase reverse transcriptase-SEAP) activity in non-small cell lung cancer H1299 cell at 2.2 uM concentration and level of cell viability determined in MTT assay; type: functional
BJ [28] = assay: pPCMV-SEAP (cytomegalovirus-SEAP) activity in immortalized hTERT-BJ1 at 2.2 uM concentration and level of cell viability determined in MTT assay; type: functional, Homo sapiens
BJ [29] = assay: Compound was tested for cytomegalovirus or (pPCMV-SEAP) activity in immortalized hTERT-BJ1 at 2.2 uM concentration; type: functional, Homo sapiens
BJ [30] = assay: Compound was tested for cytomegalovirus or (pPCMV-SEAP) activity in immortalized hTERT-BJ1 at 220 uM concentration; type: functional, Homo sapiens
NCI-H1299 [31] = assay: Compound was tested for human telomerase reverse transcriptase-SEAP (hTERT-SEAP) activity in non-small cell lung cancer H1299 cell at 2.8 uM concentration; type: functional
BJ [32] = assay: hTERT-SEAP (Human telomerase reverse transcriptase-SEAP) activity in immortalized hTERT-BJI at 2.8 uM concentration and level of cell viability determined in MTT assay; type: functional
NCI-H1299 [33] = assay: Compound was tested for human telomerase reverse transcriptase-SEAP (hTERT-SEAP) activity in non-small cell lung cancer H1299 cell at 280.0 uM concentration; type: functional
NCI-H1299 [34] = assay: hTERT-SEAP (Human telomerase reverse transcriptase-SEAP) activity in non-small cell lung cancer H1299 cell at 2.8 uM concentration and level of cell viability determined in MTT assay; type: functional
NCI-H1299 [35] = assay: Compound was tested for human telomerase reverse transcriptase-SEAP (hTERT-SEAP) activity in non-small cell lung cancer H1299 cell at 28.0 uM concentration; type: functional
BJ [36] = assay: hTERT-SEAP (Human telomerase reverse transcriptase-SEAP) activity in immortalized hTERT-BJI at 280.0 uM concentration and level of cell viability determined in MTT assay; type: functional
BJ [37] = assay: Compound was tested for human telomerase reverse transcriptase-SEAP (hTERT-SEAP) activity in immortalized hTERT-BJI at 2.8 uM concentration; type: functional
NCI-H1299 [38] = assay: hTERT-SEAP (Human telomerase reverse transcriptase-SEAP) activity in non-small cell lung cancer H1299 cell at 28 uM concentration and level of cell viability determined in MTT assay; type: functional
BJ [39] = assay: Compound was tested for human telomerase reverse transcriptase-SEAP (hTERT-SEAP) activity in immortalized hTERT-BJI at 280.0 uM concentration; type: functional
BJ [40] = assay: hTERT-SEAP (Human telomerase reverse transcriptase-SEAP) activity in immortalized hTERT-BJI at 28.0 uM concentration and level of cell viability determined in MTT assay; type: functional
BJ [41] = assay: Compound was tested for human telomerase reverse transcriptase-SEAP (hTERT-SEAP) activity in immortalized hTERT-BJI at 28.0 uM concentration; type: functional
NCI-H1299 [42] = assay: hTERT-SEAP (Human telomerase reverse transcriptase-SEAP) activity in non-small cell lung cancer H1299 cell at 280.0 uM concentration and level of cell viability determined in MTT assay; type: functional
BJ [43] = assay: Compound was tested for human telomerase reverse transcriptase-SEAP (hTERT-SEAP) activity in immortalized hTERT-BJI at 190.0 uM concentration; type: functional
NCI-H1299 [44] = assay: Compound was tested for human telomerase reverse transcriptase-SEAP (hTERT-SEAP) activity in non-small cell lung cancer H1299 cell at 19 uM concentration; type: functional
BJ [45] = assay: Compound was tested for human telomerase reverse transcriptase-SEAP (hTERT-SEAP) activity in immortalized hTERT-BJI at 19 uM concentration; type: functional
NCI-H1299 [46] = assay: Compound was tested for human telomerase reverse transcriptase-SEAP (hTERT-SEAP) activity in non-small cell lung cancer H1299 cell at 190.0 uM concentration; type: functional
NCI-H1299 [47] = assay: hTERT-SEAP (Human telomerase reverse transcriptase-SEAP) activity in non-small cell lung cancer H1299 cell at 19 uM concentration and level of cell viability determined in MTT assay; type: functional
NCI-H1299 [48] = assay: Compound was tested for human telomerase reverse transcriptase-SEAP (hTERT-SEAP) activity in non-small cell lung cancer H1299 cell at 1.9 uM concentration; type: functional
NCI-H1299 [49] = assay: hTERT-SEAP (Human telomerase reverse transcriptase-SEAP) activity in non-small cell lung cancer H1299 cell at 1.9 uM concentration and level of cell viability determined in MTT assay; type: functional
NCI-H1299 [50] = assay: hTERT-SEAP (Human telomerase reverse transcriptase-SEAP) activity in non-small cell lung cancer H1299 cell at 190.0 uM concentration and level of cell viability determined in MTT assay; type: functional
BJ [51] = assay: hTERT-SEAP (Human telomerase reverse transcriptase-SEAP) activity in immortalized hTERT-BJI at 190.0 uM concentration and level of cell viability determined in MTT assay; type: functional
BJ [52] = assay: hTERT-SEAP (Human telomerase reverse transcriptase-SEAP) activity in immortalized hTERT-BJI at 19 uM concentration and level of cell viability determined in MTT assay; type: functional

O=C1c2cccc(Sc3ncccn3)c2C(=O)c2cccc(Sc3ncccn3)c21
Relative viability (NCI-H1299 [1]): 99%
Relative SEAP activity (NCI-H1299 [2]): 49%
Relative viability (NCI-H1299 [3]): 104%
Relative viability (BJ [4]): 103%
Relative SEAP activity (NCI-H1299 [5]): 137%
Relative viability (BJ [6]): 73%
Relative viability (NCI-H1299 [7]): 107%
Relative viability (NCI-H1299 [8]): 44%
Relative SEAP activity (BJ [9]): 125%
Relative SEAP activity (NCI-H1299 [10]): 110%
Relative SEAP activity (NCI-H1299 [11]): 105%
Relative SEAP activity (BJ [12]): 61%

Nc1ccccc1Sc1cccc2c1C(=O)c1cccc(Sc3ccccc3N)c1C2=O
Relative viability (BJ [13]): 107%
Relative SEAP activity (NCI-H1299 [14]): 59%
Relative viability (NCI-H1299 [15]): 50%
Relative viability (NCI-H1299 [16]): 14%
Relative viability (BJ [17]): 103%
Relative SEAP activity (NCI-H1299 [18]): 96%
Relative SEAP activity (NCI-H1299 [19]): 108%
Relative viability (BJ [20]): 25%
Relative viability (BJ [21]): 109%
Relative SEAP activity (BJ [22]): 115%
Relative SEAP activity (BJ [23]): 141%
Relative SEAP activity (BJ [24]): 102%
Relative viability (BJ [25]): 48%
Relative SEAP activity (BJ [26]): 136%
Relative viability (NCI-H1299 [27]): 94%
Relative viability (BJ [28]): 108%
Relative SEAP activity (BJ [29]): 103%
Relative SEAP activity (BJ [30]): 122%

CCCSc1cccc2c1C(=O)c1cccc(SCCC)c1C2=O
Relative SEAP activity (NCI-H1299 [31]): 73%
Relative viability (BJ [32]): 103%
Relative SEAP activity (NCI-H1299 [33]): 17%
Relative viability (NCI-H1299 [34]): 96%
Relative SEAP activity (NCI-H1299 [35]): 29%
Relative viability (BJ [36]): 39%
Relative SEAP activity (BJ [37]): 132%
Relative viability (NCI-H1299 [38]): 44%
Relative SEAP activity (BJ [39]): 122%
Relative viability (BJ [40]): 97%
Relative SEAP activity (BJ [41]): 110%
Relative viability (NCI-H1299 [42]): 25%

O=C(Oc1cccc2c1C(=O)c1cccc(OC(=O)c3ccccc3Cl)c1C2=O)c1ccccc1Cl
Relative SEAP activity (BJ [43]): 97%
Relative SEAP activity (NCI-H1299 [44]): 101%
Relative SEAP activity (BJ [45]): 116%
Relative SEAP activity (NCI-H1299 [46]): 97%
Relative viability (NCI-H1299 [47]): 34%
Relative SEAP activity (NCI-H1299 [48]): 93%
Relative viability (NCI-H1299 [49]): 74%
Relative viability (NCI-H1299 [50]): 30%
Relative viability (BJ [51]): 40%
Relative viability (BJ [52]): 92%

O=C1c2cccc(SCCO)c2C(=O)c2cccc(SCCO)c21
Relative SEAP activity (NCI-H1299 [31]): 97%
Relative viability (BJ [32]): 94%
Relative SEAP activity (NCI-H1299 [33]): 45%
Relative viability (NCI-H1299 [34]): 54%
Relative SEAP activity (NCI-H1299 [35]): 76%
Relative viability (BJ [36]): 23%
Relative SEAP activity (BJ [37]): 104%
Relative viability (NCI-H1299 [38]): 29%
Relative SEAP activity (BJ [39]): 71%
Relative viability (BJ [40]): 49%
Relative SEAP activity (BJ [41]): 98%
Relative viability (NCI-H1299 [42]): 36%
